Experiments:
Phakopsora pachyrhizi = test: Fungicidal activity, soybean leaf disc preventative (Asian soybean rust); format: in vivo; settings: foliar, 200 ppm in the applied formulation, soybean leaf disks, compared to untreated control, 12 to 14 days after application, read-out: disease control
Method in brief: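 Read-out is percent disease control relative to untreated check discs, assessed once untreated discs show adequate disease, 12 to 14 days after application. Compounds, tested at 200 ppm in the applied formulation, are sprayed onto soybean leaf discs one day before inoculation with a spore suspension.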

[1] = test system: Glomerella lacenarium (Colletotrichum lacenarium); test: Fungicidal activity, liquid culture, cucumber preventative (anthracnose); format: cell-based; settings: 20 ppm in the applied formulation, liquid culture in PDB, inhibition of growth measured photometrically 3 to 4 days after application, compared to untreated control, read-out: disease control
Method in brief: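 Cryostored conidia mixed into potato dextrose broth and added to DMSO compound solution in microtiter plates. Incubated at 24 °C. Growth inhibition read photometrically 3–4 days after application as percent activity versus untreated check.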

[2] = test system: Puccinia recondita f. Sp. Tritici; test: Fungicidal activity, wheat leaf disc preventative (brown rust); format: in vivo; settings: foliar, 200 ppm in the applied formulation, wheat leaf segments cv. Kanzler, compared to untreated control, 7 to 9 days after application, read-out: disease control
Method in brief: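 Wheat cv. Kanzler leaf segments on agar were sprayed with formulated compound in water, then inoculated with spores 1 day later. Incubated at 19° C, 75% rh, 12 h light/12 h dark; percent disease control versus untreated scored 7 to 9 days after application.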

[3] = test system: Puccinia recondita f. Sp. Tritici; test: Fungicidal activity, wheat leaf disc curative (brown rust); format: in vivo; settings: foliar, 200 ppm in the applied formulation, wheat leaf segments cv. Kanzler, curative (applied 1 day after inoculation), compared to untreated control, 6 to 8 days after application, read-out: disease control
Method in brief: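 Curative test: wheat leaf segments cv. Kanzler on agar inoculated with spore suspension, kept dark at 19 °C/75% RH, then sprayed 1 day post-inoculation with compound diluted in water. Incubated at 19 °C, 75% RH, 12 h light/dark; percent disease control versus untreated scored 6–8 days after application.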

CON(C(=O)C1CC1)C(C)c1ccc(-c2noc(C(F)(F)F)n2)s1 (stereo not drawn) [Compound 1.48, N-methoxy-N-[1-[5-[5-(trifluoromethyl)-1,2,4-oxadiazol-3-yl]-2-thienyl]ethyl]cyclopropanecarboxamide]
≥ 80%: pest or weed control at 200 ppm (Phakopsora pachyrhizi) | inhibition of growth at 20 ppm [1] | pest or weed control at 200 ppm [2] | pest or weed control at 200 ppm [3]

CON(Cc1ccc(-c2noc(C(F)(F)F)n2)s1)C(=O)CNC(C)=O [Compound 1.7, 2-acetamido-N-methoxy-N-[[5-[5-(trifluoromethyl)-1,2,4-oxadiazol-3-yl]-2-thienyl]methyl]acetamide]
≥ 80%: pest or weed control at 200 ppm (Phakopsora pachyrhizi) | inhibition of growth at 20 ppm [1] | pest or weed control at 200 ppm [2] | pest or weed control at 200 ppm [3]

CCC(=O)N(Cc1ccc(-c2noc(C(F)(F)F)n2)s1)C1CC1 [Compound 4.56, N-cyclopropyl-N-[[5-[5-(trifluoromethyl)-1,2,4-oxadiazol-3-yl]-2-thienyl]methyl]propanamide]
≥ 80%: pest or weed control at 200 ppm (Phakopsora pachyrhizi) | inhibition of growth at 20 ppm [1] | pest or weed control at 200 ppm [2] | pest or weed control at 200 ppm [3]

CON(Cc1ccc(-c2noc(C(F)(F)F)n2)s1)C(=O)C1CC1(F)F (stereo not drawn) [Compound 1.8, 2,2-difluoro-N-methoxy-N-[[5-[5-(trifluoromethyl)-1,2,4-oxadiazol-3-yl]-2-thienyl]methyl]cyclopropanecarboxamide]
≥ 80%: pest or weed control at 200 ppm (Phakopsora pachyrhizi) | inhibition of growth at 20 ppm [1] | pest or weed control at 200 ppm [2] | pest or weed control at 200 ppm [3]

CCN(Cc1ccc(-c2noc(C(F)(F)F)n2)s1)C(=O)C(N)=O [Compound 6.5, N′-ethyl-N′-[[5-[5-(trifluoromethyl)-1,2,4-oxadiazol-3-yl]-2-thienyl]methyl]oxamide]
≥ 80%: pest or weed control at 200 ppm (Phakopsora pachyrhizi) | inhibition of growth at 20 ppm [1] | pest or weed control at 200 ppm [2] | pest or weed control at 200 ppm [3]

COCC(=O)N(Cc1ccc(-c2noc(C(F)(F)F)n2)s1)OC [Compound 1.9, N,2-dimethoxy-N-[[5-[5-(trifluoromethyl)-1,2,4-oxadiazol-3-yl]-2-thienyl]methyl]acetamide]
≥ 80%: pest or weed control at 200 ppm (Phakopsora pachyrhizi) | inhibition of growth at 20 ppm [1] | pest or weed control at 200 ppm [2] | pest or weed control at 200 ppm [3]

CCNC(=O)N(CC)Cc1ccc(-c2noc(C(F)(F)F)n2)s1 [Compound 4.8, 1,3-diethyl-1-[[5-[5-(trifluoromethyl)-1,2,4-oxadiazol-3-yl]-2-thienyl]methyl]urea]
≥ 80%: pest or weed control at 200 ppm (Phakopsora pachyrhizi) | inhibition of growth at 20 ppm [1] | pest or weed control at 200 ppm [2] | pest or weed control at 200 ppm [3]

CN(Cc1ccc(-c2noc(C(F)(F)F)n2)s1)C(=O)C1CCC1 [Compound 5.20, N-methyl-N-[[5-[5-(trifluoromethyl)-1,2,4-oxadiazol-3-yl]-2-thienyl]methyl]cyclobutanecarboxamide]
≥ 80%: pest or weed control at 200 ppm (Phakopsora pachyrhizi) | inhibition of growth at 20 ppm [1] | pest or weed control at 200 ppm [2] | pest or weed control at 200 ppm [3]

CCNC(=O)N(Cc1ccc(-c2noc(C(F)(F)F)n2)s1)C1CC1 [Compound 4.87, 1-cyclopropyl-3-ethyl-1-[[5-[5-(trifluoromethyl)-1,2,4-oxadiazol-3-yl]-2-thienyl]methyl]urea]
≥ 80%: pest or weed control at 200 ppm (Phakopsora pachyrhizi) | inhibition of growth at 20 ppm [1] | pest or weed control at 200 ppm [2] | pest or weed control at 200 ppm [3]

CCN(Cc1ccc(-c2noc(C(F)(F)F)n2)s1)C(=O)C1CC1C (stereo not drawn) [Compound 5.16, N-ethyl-2-methyl-N-[[5-[5-(trifluoromethyl)-1,2,4-oxadiazol-3-yl]-2-thienyl]methyl]cyclopropanecarboxamide]
≥ 80%: pest or weed control at 200 ppm (Phakopsora pachyrhizi) | inhibition of growth at 20 ppm [1] | pest or weed control at 200 ppm [2] | pest or weed control at 200 ppm [3]

CCN(CC)C(=O)N(Cc1ccc(-c2noc(C(F)(F)F)n2)s1)OC [Compound 1.54, 1,1-diethyl-3-methoxy-3-[[5-[5-(trifluoromethyl)-1,2,4-oxadiazol-3-yl]-2-thienyl]methyl]urea]
≥ 80%: pest or weed control at 200 ppm (Phakopsora pachyrhizi) | inhibition of growth at 20 ppm [1] | pest or weed control at 200 ppm [2] | pest or weed control at 200 ppm [3]

CCN(Cc1ccc(-c2noc(C(F)(F)F)n2)s1)C(=O)N(C)CC#N [Compound 4.70, 1-(cyanomethyl)-3-ethyl-1-methyl-3-[[5-[5-(trifluoromethyl)-1,2,4-oxadiazol-3-yl]-2-thienyl]methyl]urea]
≥ 80%: pest or weed control at 200 ppm (Phakopsora pachyrhizi) | inhibition of growth at 20 ppm [1] | pest or weed control at 200 ppm [2] | pest or weed control at 200 ppm [3]

C#CCNC(=O)N(CC)Cc1ccc(-c2noc(C(F)(F)F)n2)s1 [Compound 4.75, 1-ethyl-3-prop-2-ynyl-1-[[5-[5-(trifluoromethyl)-1,2,4-oxadiazol-3-yl]-2-thienyl]methyl]urea]
≥ 80%: pest or weed control at 200 ppm (Phakopsora pachyrhizi) | inhibition of growth at 20 ppm [1] | pest or weed control at 200 ppm [2] | pest or weed control at 200 ppm [3]

CCC(C)C(=O)N(Cc1ccc(-c2noc(C(F)(F)F)n2)s1)OC (stereo not drawn) [Compound 1.19, N-methoxy-2-methyl-N-[[5-[5-(trifluoromethyl)-1,2,4-oxadiazol-3-yl]-2-thienyl]methyl]butanamide]
≥ 80%: pest or weed control at 200 ppm (Phakopsora pachyrhizi) | inhibition of growth at 20 ppm [1] | pest or weed control at 200 ppm [2] | pest or weed control at 200 ppm [3]

C#CCNC(=O)N(Cc1ccc(-c2noc(C(F)(F)F)n2)s1)OCC(F)F [Compound 4.93, 1-(2,2-difluoroethoxy)-3-prop-2-ynyl-1-[[5-[5-(trifluoromethyl)-1,2,4-oxadiazol-3-yl]-2-thienyl]methyl]urea]
≥ 80%: pest or weed control at 200 ppm (Phakopsora pachyrhizi) | inhibition of growth at 20 ppm [1] | pest or weed control at 200 ppm [2] | pest or weed control at 200 ppm [3]

COCCCC(=O)N(Cc1ccc(-c2noc(C(F)(F)F)n2)s1)OC [Compound 1.23, N,4-dimethoxy-N-[[5-[5-(trifluoromethyl)-1,2,4-oxadiazol-3-yl]-2-thienyl]methyl]butanamide]
≥ 80%: pest or weed control at 200 ppm (Phakopsora pachyrhizi) | inhibition of growth at 20 ppm [1] | pest or weed control at 200 ppm [2] | pest or weed control at 200 ppm [3]

CCN(Cc1ccc(-c2noc(C(F)(F)F)n2)s1)S(C)(=O)=O [Compound 6.16, N-ethyl-N-[[5-[5-(trifluoromethyl)-1,2,4-oxadiazol-3-yl]-2-thienyl]methyl]methanesulfonamide]
≥ 80%: pest or weed control at 200 ppm (Phakopsora pachyrhizi) | inhibition of growth at 20 ppm [1] | pest or weed control at 200 ppm [2] | pest or weed control at 200 ppm [3]

CC(C)C(=O)N(C)Cc1ccc(-c2noc(C(F)(F)F)n2)s1 [Compound 4.10, N,2-dimethyl-N-[[5-[5-(trifluoromethyl)-1,2,4-oxadiazol-3-yl]-2-thienyl]methyl]propanamide]
≥ 80%: pest or weed control at 200 ppm (Phakopsora pachyrhizi) | inhibition of growth at 20 ppm [1] | pest or weed control at 200 ppm [2] | pest or weed control at 200 ppm [3]

CC(C)C(=O)NCc1ccc(-c2noc(C(F)(F)F)n2)s1 [Compound 2.9, 2-methyl-N-[[5-[5-(trifluoromethyl)-1,2,4-oxadiazol-3-yl]-2-thienyl]methyl]propanamide]
≥ 80%: pest or weed control at 200 ppm (Phakopsora pachyrhizi) | inhibition of growth at 20 ppm [1] | pest or weed control at 200 ppm [2] | pest or weed control at 200 ppm [3]

CC(C)(C)OC(=O)NCc1ccc(-c2noc(C(F)(F)F)n2)s1 [Compound 2.1, tert-butyl N-[[5-[5-(trifluoromethyl)-1,2,4-oxadiazol-3-yl]-2-thienyl]methyl]carbamate]
≥ 80%: pest or weed control at 200 ppm (Phakopsora pachyrhizi) | inhibition of growth at 20 ppm [1] | pest or weed control at 200 ppm [2] | pest or weed control at 200 ppm [3]

O=C(C1CC1)N(Cc1ccc(-c2noc(C(F)(F)F)n2)s1)C1CC1 [Compound 5.2, N-cyclopropyl-N-[[5-[5-(trifluoromethyl)-1,2,4-oxadiazol-3-yl]-2-thienyl]methyl]cyclopropanecarboxamide]
≥ 80%: pest or weed control at 200 ppm (Phakopsora pachyrhizi) | inhibition of growth at 20 ppm [1] | pest or weed control at 200 ppm [2] | pest or weed control at 200 ppm [3]

— patent US20200187502A1, “MICROBIOCIDAL OXADIAZOLE DERIVATIVES” (SYNGENTA PARTICIPATIONS AG, priority 2017, published 2020)
